These results are taken from publication PMC13114161 (Antibiotics, 2026).

pIC50: −log10 of the molar value. Where two headings read alike, the source gives them in different places.

Data set [1] has as its system P. aeruginosa. The data set is described as follows: MIC potentiation of antimicrobial agents by EPIs.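 For Fold difference of antibiotic MIC + TXA01182: TXA01182 tested at 6.25 µg/mL.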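 For Fold difference of antibiotic MIC + TXA09155: TXA09155 tested at 6.25 µg/mL.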 For Fold difference of antibiotic MIC + TXA11114: TXA11114 at 6.25 µg/mL.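 For MIC of antibiotic + TXA01182: TXA01182 tested at 6.25 µg/mL.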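 For MIC of antibiotic + TXA09155: TXA09155 tested at 6.25 µg/mL.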 For MIC of antibiotic + TXA11114: TXA11114 at 6.25 µg/mL. It is filed as cell-based, Pseudomonas aeruginosa. The settings on record: for Fold difference of antibiotic MIC + TXA01182 / MIC of antibiotic + TXA01182: TXA01182 at […]; for Fold difference of antibiotic MIC + TXA09155 / MIC of antibiotic + TXA09155: TXA09155 at […]; for Fold difference of antibiotic MIC + TXA11114 / MIC of antibiotic + TXA11114: TXA11114 at […]. On the procedure:
In contrast, the activities of gentamicin and imipenem were unchanged in the presence of TXA11114 under the conditions tested. Although gentamicin can be transported by the MexXY efflux system, the absence of potentiation in this assay is not sufficient to draw conclusions regarding MexXY inhibition or overall efflux specificity.
(§1) MIC assays for potentiation of antimicrobial activity against P. aeruginosa were performed as described previously.

Data set [2] concerns P. aeruginosa K767 (WT). The data set is described as follows: Antibiotic MIC potentiation in efflux mutants. Type of data set: cell-based, Pseudomonas aeruginosa. The procedure:
(§2) Next, the ability of TXA11114 to inhibit P. aeruginosa mutants overexpressing MexAB-OprM was evaluated. Loss of function mutations in nalB resulting in the overexpression of MexAB-OprM have been identified in P. aeruginosa clinical isolates and are associated with resistance to cephalosporins, fluoroquinolones and aminoglycosides. In theory, an EPI should reverse the antimicrobial susceptibility lost in bacteria-overexpressing efflux pumps. Thus, the TXA11114 EPI activity was studied using antibiotics that display efflux liabilities in this RND efflux pump (Table 5).
as §1

Data set [3] concerns P. aeruginosa K1455 (↑mexAB-oprM). The data set is described as follows: Antibiotic MIC potentiation in efflux mutants. Type of data set: cell-based, Pseudomonas aeruginosa. The procedure: as §2, §1
Data set [4] has as its system P. aeruginosa K1119 (∆mexAB-oprM). The data set is described as follows: Antibiotic MIC potentiation in efflux mutants. It is filed as cell-based, Pseudomonas aeruginosa. On the procedure: as §2, §1
For data set [5], the system named is P. aeruginosa ATCC 27853. The data set is described as follows: MIC and levofloxacin potentiation (broth microdilution). Type of data set: cell-based, Pseudomonas aeruginosa. The procedure: Once synthesized, the three fluorinated EPI analogs (TXA11114, TXA11164 and TXA12027) were first assayed for their antibacterial activities against P. aeruginosa ATCC 27853. They had MICs of 100, >200 and 100 µg/mL, respectively (Table 1). […] Particularly, the inactivity of TXA11164 was surprising as the pKa values of both the amines are similar to that in TXA11114.
as §1
(In general: In broth dilution the organism is exposed to a series of concentrations in liquid medium.)

Data set [6] has as its system P. aeruginosa ATCC 27853 ompH mutants EPIR32, EPIR36, EPIR38. Kind of data set: microbe, parasite or virus in culture. The settings on record: Pseudomonas aeruginosa. Type of data set: cell-based, Pseudomonas aeruginosa. On the procedure:
as §1

The subject of data set [7] is P. aeruginosa ATCC 27853. Kind of data set: Membrane polarization assay DiOC2(3). The settings on record: Pseudomonas aeruginosa, ATCC27853; positive control; read-out: IC50 (membrane potential, DiOC2(3)). Type of data set: cell-based, Pseudomonas aeruginosa. On the procedure: RND efflux pumps require an intact proton motive force across the inner membrane to mediate drug efflux. Accordingly, collapse of the membrane potential could indirectly disable efflux activity and result in apparent antibiotic potentiation. To determine whether TXA11114 dissipates the membrane potential of P. aeruginosa, membrane polarization was assessed using the fluorescent probe 3,3′-diethyloxacarbocyanine iodide (DiOC2(3)). DiOC2(3) accumulates in cells with polarized membranes, undergoing a concentration-dependent shift from green to red fluorescence due to dye stacking; membrane depolarization prevents this shift. […] CCCP and azithromycin were included as positive and negative controls, respectively. […] This discrepancy likely reflects a methodological limitation of the DiOC2(3) assay in Gram-negative bacteria. Specifically, EDTA treatment is required to transiently permeabilize the outer membrane to permit DiOC2(3) access to the cytoplasmic membrane (see Methods). While necessary for probe uptake, EDTA can sensitize cells to secondary perturbations and may exaggerate subtle fluorescence changes at supraphysiological compound concentrations.
P. aeruginosa membrane polarization assays were conducted as described previously using strain ATCC 27853. Briefly, mid-exponential phase (OD600 of 0.5) P. aeruginosa was pelleted by centrifugation at 3000× g for 10 min at room temperature. Cells were then resuspended in 1× PBS, treated with 10 mM EDTA for 5 min and then centrifuged at 300× g for 10 min to remove EDTA. EDTA-treated cells were pelleted and resuspended to an OD600 of 1.0 in assay resuspension buffer. A 6 mM DiOC2(3) stock in DMSO was added to cells for a final concentration of 30 µM. DiOC2(3)-loaded cells were then added to a 96-well black bottom microplate for a final volume of 200 µL. […] After 15 min incubation at 37 °C in dark, DiOC2(3) fluorescence was recorded using the SpectraMax iD5 spectrophotometer (Molecular Devices, San Jose, CA, USA) using 450 nm excitation. Red fluorescence intensity was recorded at 670 nm emission.

For data set [8], the system named is P. aeruginosa ATCC 27853. The data set is described as follows: Intracellular ATP levels. It is filed as cell-based, Pseudomonas aeruginosa. The settings on record: three hours post-treatment. On the procedure: Further, a deviation from normal membrane function can affect the activity of respiratory components and diminish ATP synthesis. Thus, an indirect approach to assess a drug’s membrane effect is by monitoring cellular ATP levels after treatment. To exclude ATP depletion as a TXA11114 MoA, bacterial ATP levels were evaluated three hours post-treatment. […] Azithromycin was used as a negative control.
P. aeruginosa intracellular ATP levels were determined as described previously using an ATP determination kit (Invitrogen, Life Technologies, Carlsbad, CA, USA). Bacterial culture strain ATCC 27853 was grown to the mid-log phase (OD600 = 0.7), washed, and resuspended in the same volume of PBSM (1X PBS, 1mM MgCl2). […] After treatment, the cells were lysed in chloroform which was subsequently removed by boiling at 80 °C. The persistent ATP from cell lysate was measured in a 96-well black flat-bottom plate by measuring the luminescence. Luminescence was converted to concentration from standard curve. […] Error bars represent the standard deviation of triplicates.

Data set [9] can be described thus: in vivo. The settings on record: female, CD-1, mouse, iv. On the procedure:
Thus, the safety and tolerability of TXA11114 was determined to find an optimum dosing capability. The maximum tolerated dose (MTD) of TXA11114 was assessed in female mice (CD-1, 6–8 weeks old) at the University of North Texas Health Science Center (UNTHSC). TXA11114 was administered IV to groups of three female mice. Mice were administered TXA11114 in the range 30–240 mg/kg (IV bolus). […] As doses are tolerated (not resulting in effects such as mortality, convulsions, or other severe morbidity), they are increased. Survival and general observations as to the tolerability of the administered dose started immediately and continued for a period of 48 h after each dose was recorded.

Data set [10] deals with P. aeruginosa ATCC 27853. Kind of data set: Neutropenic murine thigh infection model. Type of data set: in vivo, CD-1 mice. The settings on record: thigh or lung infection models. On the procedure: Female CD-1 mice (6–8 weeks old; 22 ± 2 g) were obtained from Envigo Laboratories, quarantined for at least 3 days, and housed 5 per cage in accordance with the approved IACUC protocol (IACUC-2017-0049). Neutropenia was induced by intraperitoneal (IP) administration of cyclophosphamide (Cytoxan) at 150 mg/kg on day 4 and 100 mg/kg on day 1 prior to infection.
Mice were infected intramuscularly (IM) in the right thigh with 0.1 mL of bacterial suspension containing approximately 1 × 10^5–10^6 CFU/mL. […] At 2 h or 24 h post-infection, mice were euthanized by CO2 asphyxiation, and thighs were aseptically excised and placed in 2 mL sterile phosphate-buffered saline (PBS) on ice. Tissue homogenization was performed using a Polytron PT10-35 (12 mm aggregate, Kinematica, Malters, Switzerland).
Plates were incubated overnight at 37 °C, and colonies were enumerated the following day.

In data set [11] the test system is P. aeruginosa. More on the design: method as in PMID 35052908, PMID 35740123. The settings on record: against P. aeruginosa; cited from earlier work.
The mark [12] stands for this setting: ATCC 27853 parent strain (Table S1).

Regarding `CO/N=C(\C(=O)N[C@@H]1C(=O)N2C(C(=O)[O-])=C(C[N+]3(C)CCCC3)CS[C@H]12)c1csc(N)n1` [Cefepime], in [1], the “Fold difference of antibiotic MIC + TXA01182” value is on record as 2 fold, the “MIC of antibiotic + TXA01182” value amounted to 1 µg/mL, the “Fold difference of antibiotic MIC + TXA09155” value was determined as 4 fold and the “MIC of antibiotic + TXA09155” value is 0.5 µg/mL. Moreover, in data set [1], the “Fold difference of antibiotic MIC + TXA11114” value is 4 fold and the “MIC of antibiotic + TXA11114” value turned out to be 0.5 µg/mL. Moreover, the “MIC Ratio of Antibiotics Alone/(Antibiotics + […] TXA11114)” value (from here on “MIC Ratio”) in data set [2] came out at 8. Further, the “MIC Ratio” value in [3] was 16. In data set [4], the “MIC Ratio” value was 2.

In the case of `CC(C)(O/N=C(\C(=O)N[C@@H]1C(=O)N2C(C(=O)[O-])=C(C[n+]3ccccc3)CS[C@H]12)c1csc(N)n1)C(=O)O` [Ceftazidime, ceftazidime], the MIC came out at 2 µg/mL in [5] (setting [12]); 0.25 µg/mL in data set [6] (ATCC27853, EPIR32); 2 µg/mL in data set [6] (ATCC27853, EPIR38). In addition, the “MIC of antibiotic + TXA01182” value in data set [1] was 1 µg/mL. The “MIC of antibiotic + TXA11114” value in [1] worked out at 0.5 µg/mL.

Turning to `N#CC(C#N)=NNc1cccc(Cl)c1` [CCCP, carbonyl cyanide 3-chlorophenylhydrazone], the negative-log IC50 (pIC50) – broadly, the negative decadic logarithm of the IC50, by convention in mol/L – in [7] was 7.77. The “Cellular ATP level” value in [8] is “significant depletion of ATP”.

`C[C@@H](O)[C@H]1C(=O)N2C(C(=O)O)=C(SCCN=CN)C[C@H]12` [Imipenem]: in data set [1], the “Fold difference of antibiotic MIC + TXA01182” value was determined as 1 fold, the “MIC of antibiotic + TXA01182” value is 4 µg/mL, the “Fold difference of antibiotic MIC + TXA09155” value came to 1 fold and the “MIC of antibiotic + TXA09155” value stood at 4 µg/mL. In data set [1], the “Fold difference of antibiotic MIC + TXA11114” value is 1 fold and the “MIC of antibiotic + TXA11114” value is 4 µg/mL. In addition, the “Fold difference of antibiotic MIC + TXA11114” value in data set [1] (listed as imipenem) is recorded as “unchanged”. For the same compound, the “MIC Ratio” value in data set [2] is 1. In addition, the “MIC Ratio” value in data set [3] is recorded as 1. For the same compound, the “MIC Ratio” value in data set [4] is given as 1.

With `CN(C)c1cc(NC(=O)CNC(C)(C)C)c(O)c2c1C[C@H]1C[C@H]3[C@H](N(C)C)C(O)=C(C(N)=O)C(=O)[C@@]3(O)C(O)=C1C2=O` [TGC, tigecycline], the MIC stood at 8 µg/mL in data set [5] (setting [12]); 2 µg/mL in data set [6] (ATCC27853, EPIR32); 2 µg/mL in [6] (ATCC27853, EPIR36); 8 µg/mL in data set [6] (ATCC27853, EPIR38).

As to `NCCC[C@@H](N)CNC(=O)c1cc2ccc(-c3ccc(F)cc3)cc2[nH]1` [TXA01182], in data set [5] (EPI at […], ATCC 27853), the “Fold MIC reduction [LVX/EPI-LVX]” value was determined as 8 fold. Also, the MIC in [5] (Pseudomonas aeruginosa, ATCC27853, EPI alone, ATCC 27853, read-out: EPI MIC) was 100 µg/mL. Further, the LVX MIC (+EPI) in data set [5] (levofloxacin MIC with EPI at […], ATCC 27853) turned out to be 0.125 µg/mL. Further, the MTD at 48 h in data set [9] amounted to 12.5 mg/kg. For the same compound, the “Improvement of levofloxacin efficacy in murine thigh or lung infection models” value in data set [10] is listed as “neither TXA01182 nor TXA09155 improved levofloxacin efficacy”. In addition, the “Lowest concentration enhancing activity of monobactams, fluoroquinolones, sulfonamides and tetracyclines” value in data set [11] is 6.25 µg/mL.

Consider `CC[C@H]1OC(=O)[C@H](C)[C@@H](O[C@H]2C[C@@](C)(OC)[C@@H](O)[C@H](C)O2)[C@H](C)[C@@H](O[C@@H]2O[C@H](C)C[C@H](N(C)C)[C@H]2O)[C@](C)(O)C[C@@H](C)CN(C)[C@H](C)[C@@H](O)[C@]1(C)O` [AZM, azithromycin], for which the MIC in data set [5] (setting [12]) was determined as 64 µg/mL; in data set [6] (ATCC27853, EPIR32), 32 µg/mL; in data set [6] (ATCC27853, EPIR36), 16 µg/mL; in data set [6] (ATCC27853, EPIR38) it was 64 µg/mL.

As for `NCC[C@H](O)C(=O)N[C@@H]1C[C@H](N)[C@@H](O[C@H]2O[C@H](CN)[C@@H](O)[C@H](O)[C@H]2O)[C@H](O)[C@H]1O[C@H]1O[C@H](CO)[C@@H](O)[C@H](N)[C@H]1O` [AMK, amikacin], the MIC amounted to 8 µg/mL in [5] (Pseudomonas aeruginosa, ATCC27853, ATCC 27853 parent strain (Table S1), read-out: MIC); 2 µg/mL in data set [6] (ATCC27853, EPIR32); 1 µg/mL in data set [6] (ATCC27853, EPIR36); 4 µg/mL in data set [6] (ATCC27853, EPIR38).
